In BindingDB's records for doi:10.1016/j.bmc.2012.02.019 (Emory University, 2012):
pKi: −log10 of the molar value.

Assay: Displacement of [3H]-AVP from human V1b receptor after […] by liquid scintillation counting

Compound: CS(=O)(=O)N1CCC(Oc2ccc(CC(=O)N3CCC(N4C(=O)CCc5ccccc54)CC3)c(OC/C=C/I)c2)CC1
- pKi: < 6.00
